Each compound was assayed on Mycobacterium tuberculosis Erdman (assay: Treatment of Mycobacterium tuberculosis Erdman liquid culture with Q203 in the absence or presence of Example 1 (CFU count and ODλ600)). Settings: Sauton's media; Example 1 25 μM or Q203 0.4 μM alone; day 15; compared to DMSO control.
Assay type: cell-based

Row | Compound | ODλ600 value (FIG. 3b)
1 | O=C(O)[C@@H]1CSc2c(C3CC3)c(Cc3cccc4ccccc34)cc(=O)n21 [Example 1, (3R)-7-Cyclopropyl-6-[(1-naphthyl)methyl]-4-oxo-1-thia-3a-aza-3-indancarboxylic acid] | decrease the ODλ600 value considerably
2 | CCc1nc2ccc(Cl)cn2c1C(=O)NCc1ccc(N2CCC(c3ccc(OC(F)(F)F)cc3)CC2)cc1 [Example Q203, 6-chloro-2-ethyl-N-[(4-{4-[4-(trifluoromethoxy)phenyl]piperidin-1-yl}phenyl)methyl]imidazo[1,2-a]pyridine-3-carboxamide, reference compound] | decrease the ODλ600 value considerably

These compounds were tested on Mtb (assay: Microplate Alamar Blue Assay (MABA)). Settings: Mycobacterium tuberculosis.
Assay type: cell-based
Description: The IC50 value was measured for the compounds 55-65. The measurement was made in accordance with the Microplate Alamar Blue Assay (MABA) as described by Franzblau, S. G. et al in Tuberculosis (Edinb). 92, 453-88 (2012: The MABA utilizes the dye resazurin, which is dark blue and nonfluorescent in its oxidized form but becomes pink and fluorescent when reduced to resorufin as a result of cellular metabolism. The MABA is commonly used to evaluate the efficacy of compounds in restraining Mtb growth, but also serves as an assay for aerobic respiration. The degree of the color change was monitored and quantified, and performing this assay with a range of compound concentrations allowed for calculating IC50 values for compounds. The IC50 value is defined as the concentration of the compound that inhibits the MABA color change by 50%.

Row | Compound | IC50
3 | O=C(O)C1CSc2c(C3CC3)c(-c3nc4ccccc4o3)cc(=O)n21 (stereo not shown) [Example 55, 1H-imidazol-1-ium 7-(benzo[d]oxazol-2-yl)-8-cyclopropyl-5-oxo-3,5-dihydro-2H-thiazolo[3,2-a]pyridine-3-carboxylate] | 39.1 µM
4 | O=C(O)C1CSc2c(C3CC3)c(-c3cc(-c4cccc5ccccc45)no3)cc(=O)n21 (stereo not shown) [Example 56, 1H-imidazol-1-ium 8-cyclopropyl-7-(3-(naphthalen-1-yl)isoxazol-5-yl)-5-oxo-3,5-dihydro-2H-thiazolo[3,2-a]pyridine-3-carboxylate] | 2.53 µM
5 | O=C(O)C1CSc2c(C3CC3)c(-c3cc(-c4cccc(C(F)(F)F)c4)no3)cc(=O)n21 (stereo not shown) [Example 57, 1H-imidazol-1-ium 8-cyclopropyl-5-oxo-7-(3-(3-(trifluoromethyl)phenyl)isoxazol-5-yl)-3,5-dihydro-2H-thiazolo[3,2-a]pyridine-3-carboxylate] | 2.53 µM
6 | O=C(O)C1CSc2c(C3CC3)c(-c3cc(-c4cccs4)no3)cc(=O)n21 (stereo not shown) [Example 58, 1H-imidazol-1-ium 8-cyclopropyl-5-oxo-7-(3-(thiophen-2-yl)isoxazol-5-yl)-3,5-dihydro-2H-thiazolo[3,2-a]pyridine-3-carboxylate] | 28.9 µM
7 | O=C(O)C1CSc2c(C3CC3)c(-c3cc(-c4ccccc4)no3)cc(=O)n21 (stereo not shown) [Example 59, 1H-imidazol-1-ium 8-cyclopropyl-5-oxo-7-(3-phenylisoxazol-5-yl)-3,5-dihydro-2H-thiazolo[3,2-a]pyridine-3-carboxylate] | 15.6 µM
8 | O=C(O)C1CSc2c(-c3cc(-c4ccccc4)no3)c(Cc3cccc4ccccc34)c(Br)c(=O)n21 (stereo not shown) [Example 60, 1H-imidazol-1-ium 6-bromo-7-(naphthalen-1-ylmethyl)-5-oxo-8-(3-phenylisoxazol-5-yl)-3,5-dihydro-2H-thiazolo[3,2-a]pyridine-3-carboxylate] | 4.51 µM
9 | O=C(O)C1CSc2c(C3CC(c4ccccc4)=NO3)c(Cc3cccc4ccccc34)cc(=O)n21 (stereo not shown) [Example 61, 1H-imidazol-1-ium 7-(naphthalen-1-ylmethyl)-5-oxo-8-(3-phenyl-4,5-dihydroisoxazol-5-yl)-3,5-dihydro-2H-thiazolo[3,2-a]pyridine-3-carboxylate] | 82.7 µM
10 | C#Cc1c(Cc2cccc3ccccc23)cc(=O)n2c1SCC2C(=O)O (stereo not shown) [Example 62, 1H-imidazol-1-ium 8-ethynyl-7-(naphthalen-1-ylmethyl)-5-oxo-3,5-dihydro-2H-thiazolo[3,2-a]pyridine-3-carboxylate] | 53.5 µM
11 | O=C(O)C1CSc2c(-c3cc(-c4ccccc4)no3)c(Cc3cccc4ccccc34)cc(=O)n21 (stereo not shown) [Example 63, 1H-imidazol-1-ium 7-(naphthalen-1-ylmethyl)-5-oxo-8-(3-phenylisoxazol-5-yl)-3,5-dihydro-2H-thiazolo[3,2-a]pyridine-3-carboxylate] | 12.7 µM
12 | O=C(O)C1CSc2c(-c3cc(-c4cccc5ccccc45)no3)c(Cc3cccc4ccccc34)cc(=O)n21 (stereo not shown) [Example 64, 1H-imidazol-1-ium 8-(3-(naphthalen-1-yl)isoxazol-5-yl)-7-(naphthalen-1-ylmethyl)-5-oxo-3,5-dihydro-2H-thiazolo[3,2-a]pyridine-3-carboxylate] | 14.4 µM
13 | O=C(O)C1CSc2c(C3CC3)c(Cc3cccc4ccccc34)cc(=O)n21 (stereo not shown) [Example 65, 1H-imidazol-1-ium 8-cyclopropyl-7-(naphthalen-1-ylmethyl)-5-oxo-3,5-dihydro-2H-thiazolo[3,2-a]pyridine-3-carboxylate] | 8.47 µM
